Reference: the supplement of paper PMC10307832

Experiments:
Experiment in all cases: relative viability (nuclei count vs DMSO), 5 days (fraction); higher = more cells survive
[1] = compound: COc1cc(Nc2ncc(F)c(Nc3ccc4c(n3)NC(=O)C(C)(C)O4)n2)cc(OC)c1OC [R406]
Outline: (§1)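 After an overnight hold at 37 °C, lung cancer cell lines in 1536-well plates were pinned with five library-drug doses (not always all listed), each √10 from the next, on vehicle-anchored plates. The cells stayed 5 days without fresh medium, then a one-step fix, permeabilisation and Hoechst stain preceded 4× imaging and MetaXpress nuclear counts. A plate passed only with control CV under 25% and at least one doubling. Viability is the median, over plates, of treated-well nuclei relative to vehicle-well nuclei.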

[2] = compound: O=C(/C=C/c1cccnc1)NCCCCC1CCN(C(=O)c2ccccc2)CC1 [Daporinad]
Outline: as §1

[3] = compound: COc1cc(Nc2ncc(F)c(Nc3ccc4c(n3)NC(=O)C(C)(C)O4)n2)cc(OC)c1OC [R406] + CC1(C)CCC(c2ccc(Cl)cc2)=C(CN2CCN(c3ccc(C(=O)NS(=O)(=O)c4ccc(N[C@H](CCN5CCOCC5)CSc5ccccc5)c(S(=O)(=O)C(F)(F)F)c4)cc3)CC2)C1 [Navitoclax] (partner 0.5 µM)
Outline: (§2)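 Relative viability was taken as the ratio of nuclei in treated wells to nuclei in vehicle wells. Lung cancer cell lines in 1536-well plates received compounds by pin tool one day after seeding, either one drug alone or a fixed anchor-drug dose plus five library-drug doses (not always all listed) in √10 steps. Nuclei were counted on 4× images after 5 days of treatment, and values are medians of duplicate plates.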

[4] = compound: O=C(/C=C/c1cccnc1)NCCCCC1CCN(C(=O)c2ccccc2)CC1 [Daporinad] + N=C(N)NC(=N)NCCc1ccccc1 [Phenformin] (partner 250 µM)
Outline: as §2

Cell Line	relative viability ([1]; 0.08 µM)	relative viability ([1]; 0.253 µM)	relative viability ([1]; 0.8 µM)	relative viability ([1]; 2.53 µM)	relative viability ([1]; 8 µM)	relative viability ([2]; 0.0005 µM)	relative viability ([2]; 0.001581 µM)	relative viability ([2]; 0.005 µM)	relative viability ([2]; 0.01581 µM)	relative viability ([3]; first compound 0.08 µM)	relative viability ([3]; first compound 0.253 µM)	relative viability ([3]; first compound 0.8 µM)	relative viability ([3]; first compound 2.53 µM)	relative viability ([3]; first compound 8 µM)	relative viability ([4]; first compound 0.0005 µM)	relative viability ([4]; first compound 0.001581 µM)	relative viability ([4]; first compound 0.005 µM)	relative viability ([4]; first compound 0.01581 µM)
NCI-H2023	0.902	1.05	1.12	0.388	0.241	0.982	1.15	1.09	0.987	0.896	0.975	1.1	0.888	0.603	0.409	0.399	0.405	0.447
NCI-H23	0.948	1.21	1.1	0.264	0.252	1.03	1.06	0.973	0.53	0.712	0.884	1.07	0.733	0.518	0.726	0.773	0.829	0.399
NCI-H596	0.959	1.22	1.04	0.663	0.397	0.911	1.02	0.991	0.638	0.836	1.04	1.16	0.72	0.115	0.627	0.749	0.774	0.746
A549	0.898	1.02	1.1	0.857	0.518	1.03	1.05	0.944	0.903	0.932	1.2	1.26	1.31	0.675	0.216	0.253	0.133	0.156
NCI-H520	0.869	1.12	1.12	0.559	0.298	1.14	0.804	0.286	0.238	1.02	1.09	1.05	0.636	0.251	0.554	0.286	0.187	0.22
EKVX	0.928	1.12	1.1	0.855	0.722	0.933	0.95	0.974	1.14	0.814	1.03	0.932	0.77	0.521	0.212	0.23	0.251	0.227
NCI-H1944	0.932	1.08	0.986	0.858	0.783	0.921	1.05	1.07	1.02	0.992	1.05	1.05	0.846	0.743	0.206	0.219	0.214	0.241
EPLC-272H	0.919	0.975	1.07	0.438	0.379	0.856	1.04	1.06	1.04	1.03	1.18	1.21	0.63	0.589	0.265	0.299	0.373	0.368
NCI-H1395	1.01	1.05	1.02	0.713	0.635	0.88	1.09	1.09	0.969	1.18	1.18	1.49	0.881	0.947	0.431	0.421	0.471	0.482
NCI-H2126	1.05	1.04	1.07	0.918	0.849	1.02	0.978	1.03	1.09	0.88	0.83	0.829	0.8	0.64	0.541	0.533	0.586	0.62
LXF-289	0.976	1.06	1.04	0.956	0.845	0.959	1.1	1.09	1.1	0.942	1.01	1	0.931	0.251	0.467	0.555	0.559	0.579
NCI-H2009	0.975	1.04	1.11	0.853	0.376	0.918	1.08	1.07	0.905	1.21	1.23	1.25	1.16	1.03	0.447	0.497	0.492	0.337
SK-MES-1	0.989	1.05	1.06	0.648	0.322	0.978	1.05	1.12	1.03	1.22	1.18	1.31	0.817	0.678	0.657	0.695	0.738	0.545
NCI-H2405	0.98	1.11	1.06	0.746	0.382	1.08	1.12	1.02	0.509	0.823	0.844	0.928	0.691	0.156	0.43	0.459	0.484	0.366
NCI-H1755	0.947	1.05	1.13	0.838	0.796	0.966	0.989	1.03	1.02	0.983	1.04	0.982	0.573	0.483	0.648	0.628	0.639	0.667
HCC-78	0.953	1.08	1.06	0.708	0.48	0.81	0.938	1.06	1.12	0.729	0.899	0.876	0.508	0.43	0.619	–	0.839	0.819
LOU-NH91	0.916	0.963	0.928	0.512	0.576	0.996	1.05	1.14	1.24	0.715	0.701	0.752	0.318	0.313	0.645	0.727	0.798	1.02
